pIC50: −log10 of the molar value. Residues, ends and D or L forms follow the SMILES beside them.
Experiments:
[1] = molecular target: T1, human noradrenaline transporter (hNET) (Homo sapiens, UniProt P23975); test: cell-based
T1 construct: expressed in transfected cells; host or cells: COS-7 cells (ATCC), transient transfection with metafectene

[2] = molecular target: T1, human noradrenaline transporter (hNET); test: biochemical; assay type: binding; settings: for pIC50: Av IC50 Displacement of 3H-nisoxetine from hNET

T1 sequence (P23975 whole entry): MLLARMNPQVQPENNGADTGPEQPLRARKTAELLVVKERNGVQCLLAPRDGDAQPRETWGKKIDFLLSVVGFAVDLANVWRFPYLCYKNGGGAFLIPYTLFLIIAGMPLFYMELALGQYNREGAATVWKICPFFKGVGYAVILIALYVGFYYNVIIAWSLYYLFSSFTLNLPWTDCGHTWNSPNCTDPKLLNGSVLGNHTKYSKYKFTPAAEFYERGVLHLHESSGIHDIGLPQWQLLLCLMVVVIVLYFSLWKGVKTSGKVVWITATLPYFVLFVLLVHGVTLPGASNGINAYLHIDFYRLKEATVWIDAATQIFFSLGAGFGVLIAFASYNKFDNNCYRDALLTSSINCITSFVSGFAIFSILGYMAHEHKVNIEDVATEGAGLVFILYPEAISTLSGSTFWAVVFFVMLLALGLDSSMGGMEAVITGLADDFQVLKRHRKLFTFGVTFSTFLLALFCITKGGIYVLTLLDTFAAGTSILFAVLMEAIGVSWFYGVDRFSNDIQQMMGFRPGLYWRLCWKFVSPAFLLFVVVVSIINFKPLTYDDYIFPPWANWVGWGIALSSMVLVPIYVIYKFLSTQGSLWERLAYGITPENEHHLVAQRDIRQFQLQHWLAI

Compound	pIC50 [1]	pIC50 [2]	Av IC50 Displacement of 3H-nisoxetine from hNET [2]
CC(C)C[C@@H]1NC(=O)[C@H](CCCCN)NC(=O)[C@H](Cc2ccc(O)cc2)NC(=O)CNC(=O)[C@@H]2CSSC[C@H](NC1=O)C(=O)N[C@H](C(N)=O)CSSC[C@H](NC(=O)[C@@H](N)C(C)C)C(=O)N2 [compound 148] (HELM PEPTIDE1{V.C.C.G.Y.K.L.C.C.[am]}$PEPTIDE1,PEPTIDE1,2:R3-9:R3|PEPTIDE1,PEPTIDE1,3:R3-8:R3$$$V2.0)	6.46	5.50	
CC(C)C[C@@H]1NC(=O)[C@H](CCCCN)NC(=O)[C@H](Cc2ccc(O)cc2)NC(=O)CNC(=O)[C@@H]2CSSC[C@H](NC1=O)C(=O)N[C@@H](Cc1c[nH]c3ccccc13)C(=O)N1CCC[C@H]1C(=O)N[C@H](C(N)=O)CSSC[C@H](NC(=O)[C@@H](NC(=O)[C@H](CC(=O)O)NC(=O)[C@H](CCCCN)NC(=O)[C@@H](N)Cc1c[nH]c3ccccc13)C(C)C)C(=O)N2 [compound 92] (HELM PEPTIDE1{W.K.D.V.C.C.G.Y.K.L.C.W.P.C.[am]}$PEPTIDE1,PEPTIDE1,5:R3-14:R3|PEPTIDE1,PEPTIDE1,6:R3-11:R3$$$V2.0)	7.44	6.39	
CC(C)C[C@@H]1NC(=O)[C@H](CCCCN)NC(=O)[C@H](Cc2ccc(O)cc2)NC(=O)CNC(=O)[C@@H]2CSSC[C@H](NC1=O)C(=O)N[C@@H](Cc1c[nH]cn1)C(=O)N1CCC[C@H]1C(=O)N[C@H](C(N)=O)CSSC[C@H](NC(=O)[C@@H](NC(=O)CNC(=O)[C@@H](N)CC(N)=O)C(C)C)C(=O)N2 [compound 146]	6.13	5.51	
CC(C)C[C@H](NC(=O)CNC(=O)[C@H](CCCNC(=N)N)NC(=O)[C@@H](N)Cc1c[nH]c2ccccc12)C(=O)N[C@H]1CSSC[C@@H](C(N)=O)NC(=O)[C@H](C)NC(=O)[C@H](CCCNC(=N)N)NC(=O)[C@@H]2CSSC[C@H](NC1=O)C(=O)NCC(=O)N[C@@H](Cc1ccc(O)cc1)C(=O)N[C@@H](CCCCN)C(=O)N[C@@H](CC(C)C)C(=O)N2 [compound 78]		6.56	
YNGVCCGYKLCRPC [compound 207]			−2.00
CC(C)C[C@@H]1NC(=O)[C@H](CCCCN)NC(=O)[C@H](Cc2ccc(O)cc2)NC(=O)CNC(=O)[C@@H]2CSSC[C@H](NC1=O)C(=O)N[C@@H](Cc1c[nH]cn1)C(=O)N1CCC[C@H]1C(=O)N[C@H](C(N)=O)CSSC[C@H](NC(=O)[C@@H](NC(=O)[C@H](CCCCN)NC(=O)[C@@H](N)CC(N)=O)C(C)C)C(=O)N2 [compound 122] (HELM PEPTIDE1{N.K.V.C.C.G.Y.K.L.C.H.P.C.[am]}$PEPTIDE1,PEPTIDE1,4:R3-13:R3|PEPTIDE1,PEPTIDE1,5:R3-10:R3$$$V2.0)		5.88	
CC(C)C[C@@H]1NC(=O)[C@H](Cc2ccc(O)cc2)NC(=O)CNC(=O)[C@@H]2CSSC[C@H](NC(=O)[C@H](CC(C)C)NC1=O)C(=O)N[C@@H](Cc1c[nH]cn1)C(=O)N1CCC[C@H]1C(=O)N[C@H](C(N)=O)CSSC[C@H](NC(=O)[C@@H](NC(=O)CNC(=O)[C@H](CC(N)=O)NC(=O)[C@@H](N)Cc1ccc(O)cc1)C(C)C)C(=O)N2 [compound 174] (HELM PEPTIDE1{Y.N.G.V.C.C.G.Y.L.L.C.H.P.C.[am]}$PEPTIDE1,PEPTIDE1,5:R3-14:R3|PEPTIDE1,PEPTIDE1,6:R3-11:R3$$$V2.0)		4.76	
CC(C)[C@H](NC(=O)CNC(=O)[C@@H](N)CC(N)=O)C(=O)N[C@H]1CSSC[C@@H](C(N)=O)NC(=O)[C@@H]2CCCN2C(=O)[C@H](Cc2c[nH]cn2)NC(=O)[C@@H]2CSSC[C@H](NC1=O)C(=O)NCC(=O)N[C@@H](Cc1ccc(O)cc1)C(=O)N[C@@H](CCCCN)C(=O)N[C@@H](CCCCN)C(=O)N2 [compound 196] (HELM PEPTIDE1{N.G.V.C.C.G.Y.K.K.C.H.P.C.[am]}$PEPTIDE1,PEPTIDE1,4:R3-13:R3|PEPTIDE1,PEPTIDE1,5:R3-10:R3$$$V2.0)		3.74	
CC(C)C[C@@H]1NC(=O)[C@H](CCCCN)NC(=O)[C@H](Cc2ccc(O)cc2)NC(=O)CNC(=O)[C@@H]2CSSC[C@H](NC1=O)C(=O)N[C@@H](Cc1c[nH]cn1)C(=O)N[C@@H](CCCCN)C(=O)N[C@H](C(N)=O)CSSC[C@H](NC(=O)[C@@H](NC(=O)CNC(=O)[C@@H](N)CC(N)=O)C(C)C)C(=O)N2 [compound 117] (HELM PEPTIDE1{N.G.V.C.C.G.Y.K.L.C.H.K.C.[am]}$PEPTIDE1,PEPTIDE1,4:R3-13:R3|PEPTIDE1,PEPTIDE1,5:R3-10:R3$$$V2.0)		5.94	
CC(C)C[C@@H]1NC(=O)[C@H](CCCCN)NC(=O)[C@H](Cc2ccc(O)cc2)NC(=O)CNC(=O)[C@@H]2CSSC[C@H](NC1=O)C(=O)N[C@@H](Cc1c[nH]cn1)C(=O)N1CCC[C@H]1C(=O)N[C@H](C(N)=O)CSSC[C@H](NC(=O)[C@@H](NC(=O)CNC(=O)[C@@H](N)CC(N)=O)[C@@H](C)O)C(=O)N2 [compound 138] (HELM PEPTIDE1{N.G.T.C.C.G.Y.K.L.C.H.P.C.[am]}$PEPTIDE1,PEPTIDE1,4:R3-13:R3|PEPTIDE1,PEPTIDE1,5:R3-10:R3$$$V2.0)		5.64	
CC(C)C[C@@H]1NC(=O)[C@H](CCCCN)NC(=O)[C@H](Cc2ccc(O)cc2)NC(=O)CNC(=O)[C@@H]2CSSC[C@H](NC1=O)C(=O)N[C@@H](Cc1c[nH]cn1)C(=O)N1CCC[C@H]1C(=O)N[C@H](C(N)=O)CSSC[C@H](NC(=O)[C@@H](NC(=O)CNC(=O)[C@H](CC(N)=O)NC(=O)[C@@H](N)Cc1c[nH]c3ccccc13)C(C)C)C(=O)N2 [compound 82]	5.50	6.53	
CC(C)C[C@@H]1NC(=O)[C@H](CCCCN)NC(=O)[C@H](Cc2ccc(O)cc2)NC(=O)CNC(=O)[C@@H]2CSSC[C@H](NC1=O)C(=O)N[C@@H](CCCNC(=N)N)C(=O)N1CCC[C@H]1C(=O)N[C@H](C(N)=O)CSSC[C@H](NC(=O)[C@@H](NC(=O)CNC(=O)[C@H](CC(N)=O)NC(=O)[C@@H](N)Cc1c[nH]c3ccccc13)C(C)C)C(=O)N2 [compound 60]		6.75	
CC(C)C[C@@H]1NC(=O)[C@H](CCCCN)NC(=O)[C@H](Cc2ccc(O)cc2)NC(=O)[C@@H](CCC(=O)O)NC(=O)[C@@H]2CSSC[C@H](NC1=O)C(=O)N[C@@H](Cc1c[nH]cn1)C(=O)N1CCC[C@H]1C(=O)N[C@H](C(N)=O)CSSC[C@H](NC(=O)[C@@H](NC(=O)CNC(=O)[C@@H](N)CC(N)=O)C(C)C)C(=O)N2 [compound 183]		4.21	
CC(C)C[C@@H]1NC(=O)[C@H](CCCCN)NC(=O)[C@H](Cc2ccc(O)cc2)NC(=O)CNC(=O)[C@@H]2CSSC[C@H](NC1=O)C(=O)N[C@@H](Cc1c[nH]cn1)C(=O)N1CCC[C@H]1C(=O)N[C@H](C(N)=O)CSSC[C@H](NC(=O)[C@@H](NC(=O)[C@H](CCCNC(=N)N)NC(=O)[C@H](CC(N)=O)NC(=O)[C@@H](N)Cc1ccc(O)cc1)C(C)C)C(=O)N2 [compound 118] (HELM PEPTIDE1{Y.N.R.V.C.C.G.Y.K.L.C.H.P.C.[am]}$PEPTIDE1,PEPTIDE1,5:R3-14:R3|PEPTIDE1,PEPTIDE1,6:R3-11:R3$$$V2.0)		5.93	
CC(C)C[C@@H]1NC(=O)[C@H](C)NC(=O)[C@H](Cc2ccc(O)cc2)NC(=O)CNC(=O)[C@@H]2CSSC[C@H](NC1=O)C(=O)N[C@@H](Cc1c[nH]cn1)C(=O)N1CCC[C@H]1C(=O)N[C@H](C(N)=O)CSSC[C@H](NC(=O)[C@@H](NC(=O)CNC(=O)[C@@H](N)CC(N)=O)C(C)C)C(=O)N2 [compound 172]		4.97	
CC(C)C[C@@H]1NC(=O)[C@H](CCCCN)NC(=O)[C@H](Cc2ccc(O)cc2)NC(=O)CNC(=O)[C@@H]2CSSC[C@H](NC1=O)C(=O)N[C@@H](Cc1c[nH]cn1)C(=O)N[C@@H](C)C(=O)N[C@H](C(N)=O)CSSC[C@H](NC(=O)[C@@H](NC(=O)CNC(=O)[C@H](CCCNC(=N)N)NC(=O)[C@@H](N)Cc1c[nH]c3ccccc13)C(C)C)C(=O)N2 [compound 54]		6.80	
CC(C)C[C@@H]1NC(=O)[C@H](CCCCN)NC(=O)[C@H](Cc2ccc(O)cc2)NC(=O)CNC(=O)[C@@H]2CSSC[C@H](NC1=O)C(=O)N[C@@H](CCC(N)=O)C(=O)N1CCC[C@H]1C(=O)N[C@H](C(N)=O)CSSC[C@H](NC(=O)[C@@H](NC(=O)CNC(=O)[C@H](CC(N)=O)NC(=O)[C@@H](N)Cc1ccc(O)cc1)C(C)C)C(=O)N2 [compound 163] (HELM PEPTIDE1{Y.N.G.V.C.C.G.Y.K.L.C.Q.P.C.[am]}$PEPTIDE1,PEPTIDE1,5:R3-14:R3|PEPTIDE1,PEPTIDE1,6:R3-11:R3$$$V2.0)		5.16	
CC(C)C[C@@H]1NC(=O)[C@H](CCCCN)NC(=O)[C@H](Cc2ccc(O)cc2)NC(=O)CNC(=O)[C@@H]2CSSC[C@H](NC1=O)C(=O)N[C@@H](CCCNC(=N)N)C(=O)N1CCC[C@H]1C(=O)N[C@H](C(N)=O)CSSC[C@H](NC(=O)[C@@H](NC(=O)CNC(=O)[C@H](CC(N)=O)NC(=O)[C@@H](N)Cc1ccc(O)cc1)C(C)C)C(=O)N2 [compound 89]	6.95	6.47	
CC(C)C[C@@H]1NC(=O)[C@H](CCCCN)NC(=O)[C@H](Cc2ccc(O)cc2)NC(=O)CNC(=O)[C@@H]2CSSC[C@H](NC1=O)C(=O)N[C@@H](CCCNC(=N)N)C(=O)N1CCC[C@H]1C(=O)N[C@H](C(N)=O)CSSC[C@H](NC(=O)[C@@H](NC(=O)CNC(=O)[C@H](CC(N)=O)NC(=O)[C@@H](N)Cc1ccc(O)cc1)C(C)C)C(=O)N2 [compound 84]		6.52	
CC(C)C[C@@H]1NC(=O)[C@H](CCCCN)NC(=O)[C@H](Cc2ccc(O)cc2)NC(=O)CNC(=O)[C@@H]2CSSC[C@H](NC1=O)C(=O)N[C@@H](Cc1c[nH]cn1)C(=O)N[C@@H](C)C(=O)N[C@H](C(N)=O)CSSC[C@H](NC(=O)[C@@H](NC(=O)CNC(=O)[C@@H](N)CC(N)=O)C(C)C)C(=O)N2 [compound 145] (HELM PEPTIDE1{N.G.V.C.C.G.Y.K.L.C.H.A.C.[am]}$PEPTIDE1,PEPTIDE1,4:R3-13:R3|PEPTIDE1,PEPTIDE1,5:R3-10:R3$$$V2.0)		5.53	
YNGVCCGYWLCHPC [compound 211]			−2.00
CC(C)C[C@@H]1NC(=O)[C@H](CCCCN)NC(=O)[C@H](Cc2ccc(O)cc2)NC(=O)CNC(=O)[C@@H]2CSSC[C@H](NC1=O)C(=O)N[C@@H](Cc1c[nH]cn1)C(=O)N[C@@H](Cc1ccccc1)C(=O)N[C@H](C(N)=O)CSSC[C@H](NC(=O)[C@@H](NC(=O)CNC(=O)[C@@H](N)CC(N)=O)C(C)C)C(=O)N2 [compound 155]		5.39	

— patent publication US7507717B2 (Xenome Ltd., priority 2002, dated 2009)
